Data as given in patent US11337996B2 (priority 2012, dated 2022).
Where “and” joins values, the source holds several entries; their conditions need not be identical. Identical values can stand only once. Entries after “also recorded” stand apart in the source; their conditions may differ. Like-named read-outs stand apart in the source and are kept apart here. Marks after values point to notes of the source that are not given here.

Assays:
[1] = system: Clostridium perfringens pathogen (CPP) + 1 ppm aflatoxin B1; design: species or system Cobb 500 chicks; conditions: in vivo
[2] = system: Clostridium perfringens pathogen (CPP); type: in vivo, Cobb 500 chicks; conditions: CPP Challenge
[3] = system: IL8, LITAF, TNFSF15, IL-6, iNOS, IL-1β expression; design: species or system broiler chickens (Ross/Ross); conditions: in vivo
Clostridium perfringens = type: in vivo, broiler chicken (Cobb X Cobb); conditions: infect
E. maxima = system: E. maxima; design: species or system chickens; conditions: in vivo
[4] = system: IL8, LITAF, IL-6, iNOS, TNFSF15 expression; design: species or system broiler chickens (Ross/Ross); conditions: in vivo
[5] = design: species or system Cobb 500 chicks; conditions: in vivo
[6] = system: Clostridium perfringens pathogen (CPP) without and with Aflatoxin; design: species or system Cobb 500 chicks; conditions: in vivo
[7] = system: Clostridium perfringens (CPP) and aflatoxin; design: species or system Cobb 500 chicks; conditions: in vivo
α-toxin antigen = conditions: in vivo
[8] = system: Clostridium perfringens (CP); type: in vivo, chickens
NetB toxin antigen = conditions: in vivo

virginiamycin [VM]
Feed Conversion Ratio Day 0-24 [1]: 1.38^abcd
Feed Conversion Ratio Day 10-24 [1]: 1.43^ab
Feed intake, g Day 0-10 [1]: 20.0^efg
Feed intake, g Day 0-24 [1]: 41.7^f g
Feed intake, g Day 10-24 [1]: 58.7^g
Gain, g Day 0-10 [1]: 166^cd g
Gain, g Day 0-24 [1]: 788^f g
Gain, g Day 10-24 [1]: 622^f g
Lesions Day 20 [1]: 1.150^a
Mortality, % Day 0-10 [1]: 0.63^ef %
Mortality, % Day 10-24 [1]: 0.63^bc %
gain [1]: higher gains than adding NP
Feed Conversion Ratio Day 0-10 [2]: 1.22^b
Feed Conversion Ratio Day 0-24 [2]: 1.33^f
Feed Conversion Ratio Day 10-24 [2]: 1.36^e
Feed intake, g Day 0-10 [2]: 20.9^cde g
Feed intake, g Day 0-24 [2]: 50.5^a g
Feed intake, g Day 10-24 [2]: 73.6^a g
Gain, g Day 0-10 [2]: 174^ab g
Gain, g Day 0-24 [2]: 980^a g
Gain, g Day 10-24 [2]: 806^a g
Lesions Day 20 [2]: 1.025^a
Mortality, % Day 0-10 [2]: 0.63^ef %
Mortality, % Day 10-24 [2]: 0.63^bc %
Gain, g Day 10-24 ([2]; listed as virginiamycin): improved gain compared to the diet with no product
TNFSF15 expression [3]: decreased
iNOS expression [3]: decreased
% NE Mortality (Clostridium perfringens): 1.6 bc %
Feed Consumption D0-21 (Clostridium perfringens): 4.733 b
Feed Consumption D0-28 (Clostridium perfringens): 6.313 b
Feed Consumption D14-21 (Clostridium perfringens): 2.312 c
Feed Consumption D14-28 (Clostridium perfringens): 2.891 bc
Feed Conversion D0-21 (Clostridium perfringens): 1.947 bc
Feed Conversion D0-28 (Clostridium perfringens): 1.929 bc
Feed Conversion D14-21 (Clostridium perfringens): 1.752 c
Feed Conversion D14-28 (Clostridium perfringens): 1.797 c
Weight Gain D0-21 (Clostridium perfringens): 0.316 b
Weight Gain D14-21 (Clostridium perfringens): 0.171 a
Weight Gain D14-28 (Clostridium perfringens): 0.367 b
NE (0-3) Lesion Score (Clostridium perfringens; DOT 21): 0.5 ab
Feed Conversion Day 0-21 (E. maxima): 1.676 ^ef
Feed Conversion Day 0-28 (E. maxima): 1.604 ^e
Feed Conversion Day 14-21 (E. maxima): 1.550 ^d
Feed Conversion Day 14-28 (E. maxima): 1.480 ^d
Lesion Score (E. maxima): 0.0^d
Necrotic Enteritis Mortality, % (E. maxima): 0.0^c %
Weight Gain Day 0-21 (E. maxima): 0.569 ^ab
Weight Gain Day 0-28 (E. maxima): 0.845 ^a
Weight Gain Day 14-21 (E. maxima): 0.325 ^a
Weight Gain Day 14-28 (E. maxima): 0.601 ^a
IL8 expression [4]: decreased
IL-6 expression [4]: generally decreased
LITAF expression [4]: decreased
iNOS expression [4]: generally decreased
Feed Conversion Ratio Day 0-10 [5]: 1.28^b
Feed Conversion Ratio Day 0-24 [5]: 1.34^ef
Feed intake, g Day 0-10 [5]: 22.6^ab g
Feed intake, g Day 10-24 [5]: 72.2^abc g and 72.2^abe g
Gain, g Day 0-10 [5]: 180^a g
Gain, g Day 0-24 [5]: 983^a g
Gain, g Day 10-24 [5]: 804^a g
Mortality, % Day 0-10 [5]: 0^f %
Mortality, % Day 10-24 [5]: 0.63^bc %
performance [5]: improved performance
Daily Feed Intake, g 0-10 d [6]: 21.2^a g
Daily Feed Intake, g 0-24 d [6]: 47.6^ab g
Daily Feed Intake, g 10-24 d [6]: 68.2^b g
FCR (F:G) 0-10 d [6]: 1.24^c
FCR (F:G) 0-24 d [6]: 1.35^b
FCR (F:G) 10-24 d [6]: 1.39^b
Gain, g 0-10 d [6]: 173^a g
Gain, g 0-24 d [6]: 917^a g
Gain, g 10-24 d [6]: 744^a g
Lesion Score at d-20 [6]: 0.767
Mortality, % 0-10 d [6]: 0.42^c %
Mortality, % 10-24 d [6]: 0.63%
feed conversion [7]: improved; also recorded: greatest improvement at 1.5 ppm
feed intake [7]: improved
gain [7]: improved; also recorded: higher gain that those birds not fed VM; also recorded: helps improve gain; also recorded: not at 1.5 ppm AFL
lesion scores [7]: increased
mortality [7]: decreased
antibodies to α-toxin (optical density) (α-toxin antigen): notable increases
serum antibody levels against α-toxin (α-toxin antigen): significantly higher
Feed Conversion Day 0-21 ([8]; CP): 1.746 ^bcdef
Feed Conversion Day 0-28 ([8]; CP): 1.706 ^bcd
Feed Conversion Day 14-21 ([8]; CP): 1.566 ^d
Feed Conversion Day 14-28 ([8]; CP): 1.563 ^bcd
Weight Gain Day 0-21 ([8]; CP): 0.511 ^bcd
Weight Gain Day 0-28 ([8]; CP): 0.742 ^b
Weight Gain Day 14-21 ([8]; CP): 0.295 ^bcd
Weight Gain Day 14-28 ([8]; CP): 0.526 ^bcd
Lesion Score ([8]; CP, 0 to 3 score): 0.2^cd
Necrotic Enteritis Mortality, % ([8]; CP, listed as Virginiamycin): 6.3^bc %
Necrotic Enteritis Mortality, % ([8]; CP, listed as virginiamycin): significantly better than no product
Rank (lesion score, necrotic enteritis mortality, d 14-28 weight gain and feed conversion ratio) ([8]; Table A, birds with a Clostridium perfringens challenge): 1
reduction of disease, in words ([8]; in vivo): numerically the best
serum antibody levels against the NetB toxin antigen (NetB toxin antigen): higher
serum antibody response against NetB toxin antigen (NetB toxin antigen): increased
